Experimental data from patent EP0140492B1 (WARNER-LAMBERT COMPANY, priority 1983, dated 1985).

Legend:
[1] = cited from earlier work
[2] = Plasma levels of isoxicam and bioavailability parameters after a single oral dose to beagle dogs; type: in vivo; details: beagle, dog, in vivo, po; for Tmax: Tmax (hours)
Procedure: The range for the individual animals was 51.4 to 63.0 µg/ml with three animals having a peak time of two hours and the final animal at eight hours. These plasma levels were considerably higher when compared to micronized isoxicam. […] Peak plasma concentrations for individual animals ranged from […] between three and six hours postdose.
Areas under the plasma concentrations versus time curve (AUC^0-∞) were calculated using the trapezoidal rule and extrapolated to infinity with the appropriate elimination rate constants.

[3] = water and alcohol; cited from earlier work

Cc1cc(NC(=O)C2=C(O)c3ccccc3S(=O)(=O)N2C)no1 [micronized isoxicam, 4 - hydroxy - 2 - methyl - N - (5 - methyl - 3 - isoxazolyl) - 2H - 1,2 - benzothiazine - 3 - carboxamide - 1,1 - dioxide, reference compound]
pKa [1]: about 3.65 | AUC ([2]; 100 mg, AUC^0-∞): 808 µg·h/mL | Cmax ([2]; 100 mg, Cmax (µg/ml)): 15400 ng/mL | half-life ([2]; 100 mg, Half-life (hours)): 35.5 h | Cmax ([2]; 100 mg, Mean Cmax): 15400 ± 4200 ng/mL | half-life ([2]; 100 mg, Mean half-lives (elimination, linear regression of semilogarithmic data)): 35.5 ± 7.1 h | Tmax ([2]; 100 mg): 4.2 h | AUC ([2]; 100 mg, mean AUC^0-∞): 808 ± 230 µg·h/mL | half-life ([2]; Half-life (hours)): 32.6 h | Tmax [2]: 6 h | solubility [3]: practically insoluble in water and alcohol
